Measurements taken from patent US6406706B1, “Use of α- and β-santalols major constituents of sandal wood oil, in the treatment of warts, skin blemishes and other viral-induced tumors” (Haque, Inc., priority 1996, dated 2002).

System: warts
Conditions: human, in vivo
Text: In accordance with the method according to this invention, regular use of the α- and β-santalols is meant to mean application of the α- and β-santalols at least once a day to the body surface containing the viral-induced tumors (i.e., warts and Molluscom contagiosum tumors). A further embodiment of the method of this invention comprises washing the affected area of the body with the soap, rinsing the area, placing a small amount of the α- and β-santalols on the tumor to be treated and then gently rubbing to facilitate penetration. […] The subject was advised to rub 1 drop of the santalol mixture after washing their hand with regular soap and water. The subject was to use a loofah sponge to soften the surface of the warts prior to the application of the santalol mixture. […] A subject had three warts on their right and left index fingers for over five years. […] The subject was advised to wash the warts with soap and water using a loofah sponge to soften the surface of the warts, prior to applying one drop of the santalol mixture on the warts and rubbing gently. The treatment was to occur once a day. […] The subject was asked to wash the warts on their face with soap and water and then apply the santalols with a cotton swab. […] After the resolution of the facial warts, the subject's non-facial warts were treated with the santalols.

## α- and β-santalol [santalol mixture]
  local side effects (redness, irritation or pain): no evidence of any local side effects
  local skin irritation (redness, pain): no evidence of any local skin irritation
  skin irritation, burning or redness at sites of application: no evidence
  tolerability of treatment: well tolerated
